How the values were obtained:
Assay in all cases: relative viability (nuclei count vs DMSO), 5 days (fraction); higher = more cells survive
[1] = compound: O=C(CCCCCCNC(=O)c1cnc(N(c2ccccc2)c2ccccc2)nc1)NO [Ricolinostat] + CC(C)C[C@H](NC(=O)[C@H](Cc1ccccc1)NC(=O)c1cnccn1)B(O)O [Bortezomib] (partner 0.002 µM)
Procedure, shortened: (§1)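 Medians of duplicate plates are given as relative viability. That measure is the nuclei count in treated wells divided by the count in vehicle wells. Counts were taken on 4× images of lung cancer cell lines in 1536-well plates, 5 days after pin-tool dosing the day after seeding with one drug alone or a fixed anchor-drug dose plus five library-drug doses (not always all listed) in √10 steps.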

[2] = compound: C1=CC=C(C(=C1)C2=CC=C(C=C2)C3=CSC4=C3C(=C(C(=O)N4)C#N)O)O + COc1cc2c(Oc3ccc(NC(=O)C4(C(=O)Nc5ccc(F)cc5)CC4)cc3F)ccnc2cc1OCCCN1CCOCC1 [Foretinib] (partner 0.25 µM)
Procedure, shortened: as §1

[3] = compound: O=C(CCCCCCNC(=O)c1cnc(N(c2ccccc2)c2ccccc2)nc1)NO [Ricolinostat] + CCNC(=O)c1noc(-c2cc(C(C)C)c(O)cc2O)c1-c1ccc(CN2CCOCC2)cc1 [Luminespib] (partner 0.01 µM)
Procedure, shortened: as §1

TGX 221 + Foretinib = compound: CC1=CN2C(=O)C=C(N=C2C(=C1)C(C)NC3=CC=CC=C3)N4CCOCC4 [TGX 221] + COc1cc2c(Oc3ccc(NC(=O)C4(C(=O)Nc5ccc(F)cc5)CC4)cc3F)ccnc2cc1OCCCN1CCOCC1 [Foretinib] (partner 0.25 µM)
Procedure, shortened: as §1

Cell Line	relative viability ([1]; first compound 0.08 µM)	relative viability ([1]; first compound 0.253 µM)	relative viability ([1]; first compound 0.8 µM)	relative viability ([1]; first compound 2.53 µM)	relative viability ([2]; first compound 0.08 µM)	relative viability ([2]; first compound 0.253 µM)	relative viability ([2]; first compound 0.8 µM)	relative viability ([2]; first compound 2.53 µM)	relative viability ([2]; first compound 8 µM)	relative viability ([3]; first compound 0.253 µM)	relative viability ([3]; first compound 0.8 µM)	relative viability ([3]; first compound 2.53 µM)	relative viability (TGX 221 + Foretinib; first compound 0.08 µM)	relative viability (TGX 221 + Foretinib; first compound 0.253 µM)	relative viability (TGX 221 + Foretinib; first compound 0.8 µM)	relative viability (TGX 221 + Foretinib; first compound 2.53 µM)	relative viability (TGX 221 + Foretinib; first compound 8 µM)	relative viability ([3]; first compound 0.08 µM)
A-427	0.89	0.998	0.933	0.736	1.16	1.18	1.19	1.1	1.18	0.81	0.605	0.698	1.15	0.987	1.12	1.05	1.06	–
NCI-H1975	0.406	0.357	–	0.233	0.889	0.822	0.967	1	0.84	0.227	0.186	0.179	0.862	0.899	0.965	0.841	0.797	0.243
HCC-827	1.01	0.981	0.995	1.03	1.11	1.04	1.04	1.06	0.969	0.76	0.487	0.552	1.08	1.08	1.07	0.927	0.904	0.581
UMC-11	0.571	0.795	0.678	0.372	0.809	0.855	1.15	1.19	0.858	1.02	0.964	0.684	0.934	0.932	1	1.06	1.03	0.985
NCI-H3122	0.914	1.08	0.987	1.09	0.954	1.05	1.01	1.06	0.978	0.0881	0.105	0.0921	0.967	0.931	0.957	0.949	1.01	0.0722
LXF-289	0.951	0.931	0.993	0.874	0.999	0.959	0.993	1.05	1.04	0.655	0.692	0.672	0.974	0.986	1	0.97	0.995	0.579
NCI-H647	0.877	1.06	0.948	0.421	1.21	1.22	1.32	1.41	0.963	0.238	0.117	0.21	1.05	1.04	1.21	0.762	0.931	0.161
COR-L23	0.919	0.894	0.951	0.464	0.966	1.08	1.13	1.07	0.909	0.571	0.661	0.427	0.889	0.912	1.04	0.964	0.938	0.518
BEN	0.781	0.694	0.567	0.609	0.503	0.611	0.668	0.646	0.634	0.371	0.402	0.326	0.667	0.58	0.748	0.624	0.606	0.228
LC-2-ad	0.992	0.984	0.966	0.787	0.877	1.06	0.96	0.968	0.753	0.987	0.98	0.869	0.865	0.85	0.95	0.825	0.751	0.8
NCI-H650	–	0.788	0.544	0.23	1.11	1.07	0.952	1.04	1.05	0.758	0.788	0.657	0.941	0.944	0.904	0.964	0.976	0.763
NCI-H1563	0.754	0.758	0.837	0.787	0.972	0.862	0.947	0.861	0.927	0.502	0.508	0.525	0.855	0.875	0.936	0.836	0.68	0.553
NCI-H1793	–	–	–	–	0.623	0.673	0.691	0.595	0.555	0.15	0.171	0.145	0.708	0.462	0.51	0.452	0.411	–
HCC-78	–	0.475	0.455	0.686	0.649	0.629	0.579	0.498	0.52	–	–	–	0.581	0.551	0.586	0.478	0.502	–
LCLC-97TM1	–	0.59	0.212	0.163	0.827	1.16	1.01	1.03	0.91	0.752	0.565	0.561	0.949	1.01	0.904	0.959	0.802	0.651
NCI-H2009	0.834	0.979	0.93	0.763	1.18	1.24	1.3	1.28	1.19	0.927	0.91	0.84	1.12	1.14	1.25	1.14	0.789	0.99
H3255	0.516	0.727	0.678	0.617	0.715	0.803	0.738	0.844	1.07	0.881	0.833	0.704	0.88	0.762	0.844	0.852	0.868	0.534
EPLC-272H	–	0.751	0.848	0.871	0.613	0.813	0.772	0.708	0.524	0.266	0.292	0.161	0.628	0.538	0.515	0.764	0.479	0.159
NCI-H1734	0.758	0.954	0.958	0.827	0.783	0.803	0.899	0.971	0.738	0.19	0.185	0.178	0.781	0.81	0.799	0.732	0.764	0.197
NCI-H2087	0.895	0.54	0.806	0.456	1.35	1.27	1.06	1.11	0.792	0.205	0.15	0.159	1.01	1.01	1.09	1.04	1.1	–
NCI-H522	–	–	–	–	–	–	–	–	–	1.01	1.28	1.19	–	–	–	–	–	1.39

Cell Line	relative viability ([1]; first compound 0.08 µM)	relative viability ([1]; first compound 0.253 µM)	relative viability ([1]; first compound 0.8 µM)	relative viability ([1]; first compound 2.53 µM)	relative viability ([2]; first compound 0.08 µM)	relative viability ([2]; first compound 0.253 µM)	relative viability ([2]; first compound 0.8 µM)	relative viability ([2]; first compound 2.53 µM)	relative viability ([2]; first compound 8 µM)	relative viability ([3]; first compound 0.253 µM)	relative viability ([3]; first compound 0.8 µM)	relative viability ([3]; first compound 2.53 µM)	relative viability (TGX 221 + Foretinib; first compound 0.08 µM)	relative viability (TGX 221 + Foretinib; first compound 0.253 µM)	relative viability (TGX 221 + Foretinib; first compound 0.8 µM)	relative viability (TGX 221 + Foretinib; first compound 2.53 µM)	relative viability (TGX 221 + Foretinib; first compound 8 µM)	relative viability ([3]; first compound 0.08 µM)
NCI-H1666	0.598	0.97	0.724	0.579	1	0.976	0.95	1.01	0.916	1.04	0.976	0.836	1.06	0.902	0.951	0.963	0.922	0.969
NCI-H1915	0.932	1.01	0.903	0.98	1.12	1.24	–	1.08	0.747	0.79	0.784	0.669	0.941	1.07	1.08	1.04	1.05	0.71
RERF-LC-KJ	1.15	1	1.11	1.02	0.917	0.996	0.902	0.914	0.778	1.07	1.16	0.809	0.87	0.879	0.964	0.825	0.757	1.31
NCI-H1623	–	–	–	–	0.915	0.971	0.864	0.889	0.798	0.517	0.541	0.523	0.815	0.858	0.827	0.826	0.77	0.481
NCI-H520	–	0.609	0.414	0.103	0.515	0.711	0.835	0.848	0.627	0.208	0.295	0.233	0.582	0.544	0.509	0.372	0.427	–
NCI-H2342	–	–	–	–	1.01	1.1	1.1	1.03	0.856	0.78	0.835	0.762	1.03	1.02	1.03	0.903	0.985	0.541
Calu-6	1.08	1.01	0.982	0.957	0.985	0.967	0.909	0.94	0.773	–	–	–	0.888	0.8	0.88	0.923	0.815	–
A549	–	–	–	–	0.688	1.07	0.971	0.756	0.649	–	–	–	1.05	0.917	0.997	1.06	0.801	–
HCC-366	0.906	1.11	0.904	0.639	1.03	0.974	0.949	0.992	0.959	–	–	–	0.844	0.892	0.96	0.902	0.813	–
HCC-44	0.904	0.887	0.904	0.663	–	–	–	–	–	1.04	1.02	0.911	–	–	–	–	–	0.98
SK-MES-1	–	–	–	–	0.885	1.02	0.905	0.852	0.837	0.865	0.609	0.757	0.994	0.733	0.863	0.75	0.558	0.84
NCI-H1703	–	0.299	0.261	0.172	0.284	0.355	0.35	0.363	0.409	–	–	–	0.328	0.275	0.335	0.317	0.337	–
NCI-H1299	0.998	0.955	1.04	0.937	1.1	1.07	1.09	1.11	1.17	–	–	–	1.12	1.06	1.1	1.13	1.07	–
NCI-H1944	–	–	–	–	0.88	0.863	0.987	0.935	0.904	0.686	0.629	0.57	0.844	0.819	0.873	0.746	0.612	0.663
NCI-H2170	–	–	–	–	0.951	1.03	0.988	1.03	0.932	0.717	0.661	0.953	0.995	1.1	0.991	0.945	0.978	0.616
NCI-H358	–	–	–	–	0.672	0.558	0.697	0.624	0.53	0.269	0.482	0.254	0.702	0.664	0.711	0.597	0.587	–
EBC-1	0.49	0.458	0.386	0.263	0.103	0.101	0.123	0.0897	0.115	–	–	–	0.0971	0.106	0.102	0.1	0.11	–
LK-2	–	–	–	–	–	1.01	1.37	1.3	1.7	0.191	0.168	0.177	1.2	1.2	1.53	1.17	0.998	0.18
NCI-H1395	–	–	–	–	0.867	0.964	0.991	1.01	1	0.792	0.859	0.528	0.903	0.961	0.873	0.716	0.628	–
SW 900	–	–	–	–	0.914	0.519	0.923	0.634	0.62	0.164	0.183	0.17	0.682	0.651	0.788	0.546	0.726	0.166
IA-LM	0.628	0.696	0.73	0.594	0.893	1.35	1.01	1.41	1.14	–	–	–	1.18	1.04	1.08	1.22	1.11	–
